By EC50 is commonly meant the concentration that produces a half-maximal response.

A short description of experiment [1]: Activation of GFP-tagged HIF1alpha expressed in human U2OS cells assessed as HIF1alpha nuclear translocation by high content imaging assay.
Experiment [2] has as its target T1, Hypoxia-inducible factor 1-alpha (Homo sapiens, UniProt Q16665). Kind of experiment: Activation of human HIF1alpha expressed in DFX-induced human U2OS cells incubated for 30 mins prior to DFX-induction measured after overnight incubation by luciferase reporter gene assay.
Experiment [3] can be described thus: Activation of human HIF1alpha expressed in human U2OS cells assessed as increase in VEGF expression by RT-PCR analysis.
Experiment [4] has as its target T1, Hypoxia-inducible factor 1-alpha. Put plainly: Activation of human HIF1alpha expressed in DFX-induced human U2OS cells incubated for 30 mins prior to DFX-induction measured after overnight incubation by luciferase reporter gene assay in presence of 50 uM zinc. (Reporter assays use an easily measured gene product as a stand-in for the process of interest.)
Experiment [5] has the same target. Put plainly: Activation of human HIF1alpha expressed in DFX-induced human U2OS cells incubated for 30 mins prior to DFX-induction measured after overnight incubation by luciferase reporter gene assay in presence of 50 uM iron.

T1 sequence (Q16665 whole entry): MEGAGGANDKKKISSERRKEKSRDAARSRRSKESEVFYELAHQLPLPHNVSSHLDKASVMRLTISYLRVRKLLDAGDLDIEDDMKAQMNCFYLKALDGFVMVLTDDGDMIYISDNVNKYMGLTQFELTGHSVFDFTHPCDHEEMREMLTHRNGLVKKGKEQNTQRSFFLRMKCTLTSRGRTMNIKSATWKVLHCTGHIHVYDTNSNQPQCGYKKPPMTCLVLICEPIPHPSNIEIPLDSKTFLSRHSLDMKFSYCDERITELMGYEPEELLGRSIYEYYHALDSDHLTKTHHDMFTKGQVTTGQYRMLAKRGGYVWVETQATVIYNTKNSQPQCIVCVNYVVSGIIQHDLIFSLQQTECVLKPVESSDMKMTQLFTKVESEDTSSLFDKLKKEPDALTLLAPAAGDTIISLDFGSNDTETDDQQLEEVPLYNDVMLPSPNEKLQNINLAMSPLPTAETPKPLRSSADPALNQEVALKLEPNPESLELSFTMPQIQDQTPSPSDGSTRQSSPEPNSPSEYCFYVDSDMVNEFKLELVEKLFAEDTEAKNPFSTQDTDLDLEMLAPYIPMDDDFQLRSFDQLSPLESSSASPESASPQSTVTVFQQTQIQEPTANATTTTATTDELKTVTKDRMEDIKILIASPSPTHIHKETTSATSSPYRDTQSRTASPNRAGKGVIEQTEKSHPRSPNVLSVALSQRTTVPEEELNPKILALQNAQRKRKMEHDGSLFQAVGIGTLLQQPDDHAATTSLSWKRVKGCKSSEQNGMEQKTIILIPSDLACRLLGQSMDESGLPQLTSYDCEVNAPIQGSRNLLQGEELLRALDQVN

On to `Cc1cccc(Nc2nc(-c3ccccn3)nnc2-c2ccccc2)n1`, for which the EC50 in experiment [1] is 5.41 µM; in experiment [2] it was 22.4 µM; in experiment [3] it was 7.55 µM.

On to `c1ccc(-c2nnc(-c3ccccn3)nc2Nc2cnc3ccccc3n2)cc1`, for which the figures for the EC50 in experiment [1], in experiment [2] and in experiment [3] were 4.46 µM, 7.64 µM and 3.26 µM, respectively.

Regarding `Cc1ccccc1CNc1nc(-c2ccccn2)nnc1-c1ccccc1`, the EC50 in experiment [1] was determined as 9.54 µM; in experiment [2] it was 6.67 µM; in experiment [3] it was 3.08 µM.

With `Cc1cccc(CNc2nc(-c3ccccn3)nnc2-c2ccccc2)c1`, the EC50 is 2.39 µM in experiment [1], 5.41 µM in experiment [2] and 2.91 µM in experiment [3].

Turning to `Cc1ccc(CNc2nc(-c3ccccn3)nnc2-c2ccccc2)cc1`, the EC50 in experiment [1] was found to be 1.19 µM; in experiment [2], 4.58 µM; in experiment [3], 2.6 µM.

With `C[C@H](Nc1nc(-c2ccccn2)nnc1-c1ccccc1)C1CCCCC1`, the EC50 worked out at 2.06 µM in experiment [1], 4.17 µM in experiment [2] and 2.55 µM in experiment [3].

Turning to `C[C@@H](Nc1nc(-c2ccccn2)nnc1-c1ccccc1)C1CCCCC1`, the EC50 was determined as 1.2 µM in experiment [1], 6.73 µM in experiment [2] and 1.88 µM in experiment [3].

With `c1ccc(-c2nnc(-c3ccccn3)nc2NCC2CCOCC2)cc1`, the EC50 was 7.67 µM in experiment [1], 29.5 µM in experiment [2] and 8.38 µM in experiment [3].

With `c1ccc(CCNc2nc(-c3ccccn3)nnc2-c2ccccc2)cc1`, the EC50 came out at 9.82 µM in experiment [1], 3.63 µM in experiment [2] and 8.72 µM in experiment [3].

For the molecule `c1ccc(-c2nnc(-c3ccccn3)nc2NCCc2ccccn2)cc1`, the EC50 in experiment [1] was 9.84 µM; in experiment [2], 17.5 µM; in experiment [3], 9.6 µM.

On to `Cc1ccc(CNc2nc(-c3ccccn3)nnc2-c2ccccc2)cc1C`, for which the EC50 in experiment [1] was determined as 2.3 µM; in experiment [2] it was 2.96 µM; in experiment [3] it was 1.85 µM.

With `Clc1cccc(CNc2nc(-c3ccccn3)nnc2-c2ccccc2)c1`, the EC50 was determined as 1.49 µM in experiment [1], 2.33 µM in experiment [2] and 2.77 µM in experiment [3].

Take `COc1ccc(CNc2nc(-c3ccccn3)nnc2-c2ccccc2)cc1`: the EC50 in experiment [1] was 3.73 µM; in experiment [2], 4.74 µM; in experiment [3], 3.67 µM.

Regarding `COc1cccc(CNc2nc(-c3ccccn3)nnc2-c2ccccc2)c1`, the EC50 in experiment [1] worked out at 6.27 µM; in experiment [2], 4.15 µM; in experiment [3], 3.92 µM.

As for `CC(C)(C)c1ccc(CNc2nc(-c3ccccn3)nnc2-c2ccccc2)cc1`, the concentration giving a half-maximal response (EC50) amounted to 0.6 µM in experiment [1], 1.71 µM in experiment [2] and 1.12 µM in experiment [3].

For the molecule `c1ccc(-c2nnc(-c3ccccn3)nc2NCc2cccnc2)cc1`, the EC50 in experiment [1] came out at 5.02 µM; in experiment [2], 26 µM; in experiment [3], 4.35 µM.

On to `c1ccc(-c2nnc(-c3ccccn3)nc2NCc2ccccn2)cc1`, for which the values for the EC50 in experiment [1], in experiment [2] and in experiment [3] were 7.62 µM, 27.8 µM and 6.45 µM, respectively.

Turning to `c1ccc(-c2cccc(CNc3nc(-c4ccccn4)nnc3-c3ccccc3)c2)cc1`, the EC50 in experiment [1] came to 0.5 µM; in experiment [2], 2.49 µM; in experiment [3], 2.57 µM.

As for `c1ccc(-c2ccc(CNc3nc(-c4ccccn4)nnc3-c3ccccc3)cc2)cc1`, the EC50 in experiment [1] was 1.4 µM; in experiment [4], 5.01 µM; in experiment [2], 1.12 µM; in experiment [3], 1.63 µM; in experiment [5], 15.6 µM.

`O=C(NCCCCO)c1cc(-c2ccccc2)on1`: the EC50 in experiment [1] came out at 3.04 µM; in experiment [2] it was 22 µM; in experiment [3], 7.57 µM.

Regarding `O=C(NCC1CC1)c1cc(-c2ccccc2)on1`, the EC50 in experiment [1] turned out to be 16.6 µM; in experiment [2], 24.9 µM; in experiment [3] it was 21.5 µM.

Regarding `c1ccc(-c2nnc(-c3ccccn3)nc2NCC2CC2)cc1`, the EC50 in experiment [1] amounted to 4.27 µM; in experiment [2] it was 12.7 µM; in experiment [3], 6.21 µM.

As to `c1ccc(-c2nnc(-c3ccccn3)nc2NCC2CCCCC2)cc1`, the 50% effective concentration (EC50) was determined as 2.46 µM in experiment [1], 4.74 µM in experiment [2] and 3.45 µM in experiment [3].

Consider `CC(C)(C)CCNc1nc(-c2ccccn2)nnc1-c1ccccc1`, for which the EC50 was 3.82 µM in experiment [1], 2.97 µM in experiment [2] and 2.48 µM in experiment [3].

Regarding `OCCCNc1nc(-c2ccccn2)nnc1-c1ccccc1`, the figures for the EC50 in experiment [1], in experiment [2] and in experiment [3] were 10.5 µM, 25 µM and 10.6 µM, respectively.

Regarding `c1ccc(-c2nnc(-c3ccccn3)nc2NCCN2CCOCC2)cc1`, the EC50 is 9.08 µM in experiment [1], 20.8 µM in experiment [2] and 10 µM in experiment [3].

Turning to `c1ccc(-c2nnc(-c3ccccn3)nc2NCCCN2CCOCC2)cc1`, the EC50 in experiment [1] is 6.27 µM; in experiment [2], 14.2 µM; in experiment [3], 8.12 µM.

For the molecule `OCC1CCN(c2nc(-c3ccccn3)nnc2-c2ccccc2)CC1`, the EC50 came out at 11.6 µM in experiment [1], 22.9 µM in experiment [2] and 12.1 µM in experiment [3].

On to `CN1CCN(c2nc(-c3ccccn3)nnc2-c2ccccc2)CC1`, for which the EC50 turned out to be 10.2 µM in experiment [1], 21.9 µM in experiment [2] and 8.69 µM in experiment [3].

For `O=C(NCCCN1CCOCC1)c1cc(-c2ccccc2)on1`, the EC50 in experiment [1] came to 20 µM; in experiment [2], 23.9 µM; in experiment [3], 28 µM.

The molecule `CCCCNC(=O)c1cc(-c2ccc(F)cc2)on1` registered an EC50 in experiment [2] of 8.85 µM.

For the molecule `C=CCNc1nc(-c2ccccn2)nnc1-c1ccccc1` [6-phenyl-N-prop-2-enyl-3-(2-pyridinyl)-1,2,4-triazin-5-amine], the EC50 turned out to be 4.62 µM in experiment [1], 7.13 µM in experiment [2] and 6.15 µM in experiment [3].

`c1ccc(CNc2nc(-c3ccccn3)nnc2-c2ccccc2)cc1` [GNF-Pf-100]: the 50% effective concentration (EC50) is 4.8 µM in experiment [1], 7.74 µM in experiment [2] and 4.48 µM in experiment [3].

In the case of `CN(C)c1nc(-c2ccccn2)nnc1-c1ccccc1` [MLS000541553], the figures for the concentration for a half-maximal effect (EC50) in experiment [1], in experiment [2] and in experiment [3] were 9.82 µM, 7.46 µM and 9.06 µM, respectively.

With `O=C(NCCCn1ccnc1)c1cc(-c2ccccc2)on1` [MLS000708948], the EC50 in experiment [1] was determined as 7.72 µM; in experiment [2], 8.67 µM; in experiment [3], 15.8 µM.

On to `CC(=O)N(O)CCCCCNC(=O)CCC(=O)N(O)CCCCCNC(=O)CCC(=O)N(O)CCCCCN` [N-[5-[[4-[5-[acetyl(hydroxy)amino]pentylamino]-4-oxobutanoyl]-hydroxyamino]pentyl]-N''-(5-aminopentyl)-N''-hydroxybutanediamide;methanesulfonic acid], for which, in experiment [2], it took 17.8 µM to reach a half-maximal effect (EC50).
